How the values were obtained:
FMS kinase = biological target: T1, FMS kinase (Homo sapiens, UniProt P07333); assay: LanthaScreen Eu Kinase Binding Assay (ATP, fluorescent-PolyGT substrate); type: biochemical
T1 construct: purchased Invitrogen (Life Technologies)
In short: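 Kinase (1.25 nM) preincubated 10 min with 3-fold compound dilutions, then ATP 10 μM and fluorescent PolyGT substrate 200 nM added for 1 h in the dark at room temperature. Stopped with Tb-antibody (4 nM) and EDTA 20 mM; TR-FRET at 340 nm excitation, 495/520 nm emission; IC50 from four-parameter fit.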

PI3Kδ kinase = biological target: T2, PI3Kδ kinase (Homo sapiens, UniProt O00329); assay: PI3Kδ kinase assay (ADP-Glo, Reaction Biology); type: biochemical
T2 construct: purchased Reaction Biology Corporation (assay service)
In short: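 Kinase in Tris-HCl 40 mM pH 7.5, MgCl2 20 mM, orthovanadate 3 mM, DTT 2 mM, 0.05% CHAPS, 1% DMSO, preincubated 10 min at room temperature with compound (about 0.5 nM–100 μM). ATP started a 30-min reaction at 30 °C. ADP-Glo luminescence converted to μM ADP via standard curve; IC50 from nonlinear regression.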

[1] = system: Rb Ser780 phosphorylation in MCF-7 cells; assay: Determination of pRb levels (Ser780 phosphorylation, ELISA); type: cell-based; details: Homo sapiens; for inhibition at 0.01 µM: MCF7, 0.01 μM; for inhibition at 0.01 µM / inhibition at 0.1 µM / inhibition at 1 µM: 24H treatment, percentage of vehicle control; for inhibition at 0.1 µM: MCF7, 0.1 μM; for inhibition at 1 µM: MCF7, 1 μM
Method: Hypo-phosphorylation of the retinoblastoma protein (Rb) by cyclin D:Cdk4/6 complexes results in active Rb, which is a clinically relevant biomarker associated with CDK4 or CDK6 inhibition. As a confirmatory measure of functional activity of CDK4/6, the Ser780 phosphorylation state of Rb was assessed. MCF-7 cells were plated at 2.5×10^5 to 3.0×10^6 cells/well in 6-well cell-culture plates and incubated at 37° C. for 24H in MEM medium supplemented with 10% FBS. Cells were treated for 24H with a medium containing test compound at various concentrations (e.g., 0.01, 0.1, […]) or with DMSO (≤1%) in duplicate. After incubation period, the media was removed, and cells were rinsed once with ice-cold PBS and lysed with 0.2 mL of Cell Lysis Buffer containing 1 mM PMSF and Protease Inhibitor. Protein concentration was estimated following Bradford method. The lysis and the Rb measurements were performed following the manufacturer's ELISA kit protocols and buffers (Cell Signaling Technology, Cat. No.: 13016C). Rb inhibition of test compounds was calculated as percentage of vehicle control. In some cases, a nonlinear regression model with a sigmoidal dose response and variable slope within GraphPad Prism was used to calculate the IC50 value of Rb inhibition for individual test compounds.

[2] = system: BT-549 breast ductal carcinoma cells; assay: Cancer cell proliferation assay, single agent (cell viability); type: cell-based; details: Homo sapiens, Table 4, Rb negative, treatment 24 Hr, Cell Titer-Glo or resazurin
In short: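 Cells seeded day 1, then exposed on day 2 to 7–9 compound concentrations (e.g. 1.1 nM–10 μM); BT-549 for 24 h, MCF-7 and DU4475 for 144 h with medium change at 72 h. Viability by CellTiter-Glo or resazurin; IC50 from variable-slope sigmoidal fit.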

CDK2 (cyclin E1) = biological target: T3, CDK2 (cyclin E1) (Homo sapiens, UniProt P24941); assay: LanthaScreen Eu Kinase Binding Assay; details: read-out: CDK2/E IC50
T3 construct: purchased Invitrogen Life Technologies (assay service)
Method: 0.16 μL of 100×test compound in 100% DMSO (at specific solutions) were mixed with 3.84 μL of Kinase Buffer (50 mM HEPES pH 7.5, 0.01% BRIJ-35, 10 mM MgCl2, 1 mM EGTA), 8.0 μL of 2× Kinase (2.5 nM)/Antibody (Eu-anti-GST, 2 nM) Mixture and 4.0 μL of 4×Tracer (Tracer 236, 100 nM). The plates were shaken for 30 seconds, and incubated for 60 minutes at room temperature. The plates were read on fluorescence plate reader with Dual emission at 615 nm and 665 nm.
The following equations were used for LanthaScreen Eu Kinase Binding Assay Data Analysis. Percent inhibition (100-% activity) was fitted to the “four-parameter logistic model” in XLfit for determination of IC50 values.

T1 sequence (P07333 20-972): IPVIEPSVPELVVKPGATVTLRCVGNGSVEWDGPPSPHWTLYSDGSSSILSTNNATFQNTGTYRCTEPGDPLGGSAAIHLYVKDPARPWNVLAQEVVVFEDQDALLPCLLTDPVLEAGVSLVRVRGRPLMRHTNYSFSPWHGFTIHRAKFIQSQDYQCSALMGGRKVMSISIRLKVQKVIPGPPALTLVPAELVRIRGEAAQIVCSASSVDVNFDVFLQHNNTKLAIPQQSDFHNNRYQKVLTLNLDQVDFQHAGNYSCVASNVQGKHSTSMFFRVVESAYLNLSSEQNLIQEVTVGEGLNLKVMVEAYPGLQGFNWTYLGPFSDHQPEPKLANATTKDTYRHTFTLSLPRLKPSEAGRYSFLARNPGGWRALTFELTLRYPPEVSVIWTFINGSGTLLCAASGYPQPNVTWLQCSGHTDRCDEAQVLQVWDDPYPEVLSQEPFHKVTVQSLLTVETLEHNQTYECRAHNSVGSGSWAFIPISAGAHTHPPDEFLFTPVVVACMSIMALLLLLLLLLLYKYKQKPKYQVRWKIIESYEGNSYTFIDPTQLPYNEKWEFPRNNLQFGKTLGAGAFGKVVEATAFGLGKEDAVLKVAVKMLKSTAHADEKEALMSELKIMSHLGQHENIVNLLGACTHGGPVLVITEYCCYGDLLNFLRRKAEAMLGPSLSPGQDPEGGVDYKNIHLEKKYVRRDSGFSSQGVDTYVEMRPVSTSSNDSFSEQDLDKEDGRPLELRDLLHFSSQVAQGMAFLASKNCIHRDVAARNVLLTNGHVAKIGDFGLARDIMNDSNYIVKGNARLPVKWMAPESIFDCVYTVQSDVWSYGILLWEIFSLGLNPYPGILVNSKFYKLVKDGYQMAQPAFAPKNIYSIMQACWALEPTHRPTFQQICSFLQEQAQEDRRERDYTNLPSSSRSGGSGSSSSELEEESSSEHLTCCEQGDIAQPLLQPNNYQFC
T2 sequence (O00329 whole entry): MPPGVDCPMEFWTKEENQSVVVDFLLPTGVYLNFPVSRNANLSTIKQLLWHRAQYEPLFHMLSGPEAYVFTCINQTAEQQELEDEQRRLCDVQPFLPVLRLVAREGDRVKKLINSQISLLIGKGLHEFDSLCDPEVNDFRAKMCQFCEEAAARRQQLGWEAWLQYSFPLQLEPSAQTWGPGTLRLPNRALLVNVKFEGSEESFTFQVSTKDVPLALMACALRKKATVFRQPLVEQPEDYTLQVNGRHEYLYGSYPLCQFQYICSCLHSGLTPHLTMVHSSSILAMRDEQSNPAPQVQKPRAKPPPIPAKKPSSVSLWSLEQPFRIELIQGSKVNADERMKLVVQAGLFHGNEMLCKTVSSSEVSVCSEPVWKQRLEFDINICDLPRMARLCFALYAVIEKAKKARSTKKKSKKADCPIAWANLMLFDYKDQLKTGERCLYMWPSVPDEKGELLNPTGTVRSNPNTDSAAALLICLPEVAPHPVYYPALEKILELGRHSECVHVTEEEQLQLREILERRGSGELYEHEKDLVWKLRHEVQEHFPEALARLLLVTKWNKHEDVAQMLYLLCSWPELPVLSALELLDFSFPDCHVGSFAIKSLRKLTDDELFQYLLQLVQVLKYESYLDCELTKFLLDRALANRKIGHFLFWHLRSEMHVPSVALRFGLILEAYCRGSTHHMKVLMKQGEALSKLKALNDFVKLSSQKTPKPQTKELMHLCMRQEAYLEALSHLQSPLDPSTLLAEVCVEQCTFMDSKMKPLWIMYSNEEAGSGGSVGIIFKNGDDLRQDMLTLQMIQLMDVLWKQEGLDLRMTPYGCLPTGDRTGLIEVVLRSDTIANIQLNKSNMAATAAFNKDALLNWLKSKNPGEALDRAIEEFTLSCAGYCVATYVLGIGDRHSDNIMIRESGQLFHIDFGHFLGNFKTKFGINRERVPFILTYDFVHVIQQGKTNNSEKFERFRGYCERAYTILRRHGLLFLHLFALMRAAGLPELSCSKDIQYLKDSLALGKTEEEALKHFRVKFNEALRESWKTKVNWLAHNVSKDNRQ
T2 sequence (P27986 whole entry partner): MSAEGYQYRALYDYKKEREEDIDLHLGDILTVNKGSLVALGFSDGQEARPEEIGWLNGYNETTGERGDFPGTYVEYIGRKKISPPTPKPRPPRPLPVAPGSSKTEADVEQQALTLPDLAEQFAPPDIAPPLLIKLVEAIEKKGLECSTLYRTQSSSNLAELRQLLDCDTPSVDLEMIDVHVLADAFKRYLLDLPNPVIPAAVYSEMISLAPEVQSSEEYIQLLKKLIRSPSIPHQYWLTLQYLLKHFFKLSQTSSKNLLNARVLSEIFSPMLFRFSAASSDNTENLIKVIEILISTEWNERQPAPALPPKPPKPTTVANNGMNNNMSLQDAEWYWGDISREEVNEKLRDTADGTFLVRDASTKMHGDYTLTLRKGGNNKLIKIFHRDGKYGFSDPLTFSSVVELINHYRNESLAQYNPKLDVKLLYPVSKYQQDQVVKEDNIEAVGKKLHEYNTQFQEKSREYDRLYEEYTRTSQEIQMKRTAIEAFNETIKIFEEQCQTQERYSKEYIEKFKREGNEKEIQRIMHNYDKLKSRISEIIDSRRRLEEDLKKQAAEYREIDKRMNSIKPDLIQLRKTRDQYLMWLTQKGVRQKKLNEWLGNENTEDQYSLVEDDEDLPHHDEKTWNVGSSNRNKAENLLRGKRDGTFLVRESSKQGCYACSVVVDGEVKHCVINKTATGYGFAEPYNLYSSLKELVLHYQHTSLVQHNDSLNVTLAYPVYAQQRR

| Compound | IC50 (FMS kinase) | IC50 (PI3Kδ kinase) | inhibition at 0.01 µM [1] | inhibition at 0.1 µM [1] | inhibition at 1 µM [1] | IC50 [2] | IC50 (CDK2 (cyclin E1)) | IC50 ([1]; MCF7, 24H treatment, read-out: Inhibition of Rb phosphorylation IC50) |
| --- | --- | --- | --- | --- | --- | --- | --- | --- |
| CS(=O)(=O)N1CCC(Nc2ncc3cc(C#N)c(=O)n(C4CCC(F)(F)C4)c3n2)CC1 (racemic) [Compound No. 345, 8-(3,3-difluorocyclopentyl)-2-((1-(methylsulfonyl)piperidin-4-yl)amino)-7-oxo-7,8-dihydropyrido[2,3-d]pyrimidine-6-carbonitrile] | 674 nM | > 50000 nM |  |  |  |  |  |  |
| N#Cc1cc2cnc(Nc3ccc(N4CCNCC4)c(F)c3)nc2n(C2CCCC2)c1=O [Compound No. 13, 8-cyclopentyl-2-((3-fluoro-4-(piperazin-1-yl)phenyl)amino)-7-oxo-7,8-dihydropyrido[2,3-d]pyrimidine-6-carbonitrile] | < 1 nM | 561 nM | 35% | 58% | 93% | 1400 nM |  |  |
| N#Cc1cc2cnc(Nc3ccc4c(c3)CNCC4)nc2n(C2CCCC2)c1=O [Compound No. 29, 8-cyclopentyl-7-oxo-2-((1,2,3,4-tetrahydroisoquinolin-7-yl)amino)-7,8-dihydropyrido[2,3-d]pyrimidine-6-carbonitrile] | 2.5 nM | 552 nM | 12% | 27% | 44% |  |  |  |
| N#Cc1cc2cnc(Nc3ccc4c(c3)CCNC4)nc2n(C2CCCC2)c1=O [Compound No. 31, 8-cyclopentyl-7-oxo-2-((1,2,3,4-tetrahydroisoquinolin-6-yl)amino)-7,8-dihydropyrido[2,3-d]pyrimidine-6-carbonitrile] | 1 nM | 128 nM | 1% | 27% | 95% | 1110 nM | 74 nM |  |
| CS(=O)(=O)N1CCC(Nc2ncc3cc(C#N)c(=O)n(C4CCCC4)c3n2)CC1 [Compound No. 93, 8-cyclopentyl-2-((1-(methylsulfonyl)piperidin-4-yl)amino)-7-oxo-7,8-dihydropyrido[2,3-d]pyrimidine-6-carbonitrile] |  | 12100 nM |  |  |  |  |  | < 123 nM |
| CS(=O)(=O)N1CCC(Nc2ncc3cc(C#N)c(=O)n(C4CC5CC5C4)c3n2)CC1 (centres unmarked) [Compound No. 341, 8-(bicyclo[3.1.0]hexan-3-yl)-2-((1-(methylsulfonyl)piperidin-4-yl)amino)-7-oxo-7,8-dihydropyrido[2,3-d]pyrimidine-6-carbonitrile] | 166 nM | > 50000 nM |  |  |  |  |  |  |
| N#Cc1cc2cnc(Nc3ccc4c(c3)CCNC4)nc2n(C2CC3CC3C2)c1=O (centres unmarked) [Compound No. 342, 8-(bicyclo[3.1.0]hexan-3-yl)-7-oxo-2-((1,2,3,4-tetrahydroisoquinolin-6-yl)amino)-7,8-dihydropyrido[2,3-d]pyrimidine-6-carbonitrile] | < 1 nM | 421 nM |  |  |  |  |  |  |

Reference: patent US20220273659A1, “HETEROCYCLIC COMPOUNDS AS KINASE INHIBITORS” (NUVATION BIO INC., priority 2019, published 2022)
